The record followed here is article PMC9596378, “Discovery and molecular basis of subtype-selective cyclophilin inhibitors” (Nature Chemical Biology, 2022).

Each structure is given as a SMILES string.

One experiment deals with T1, His6-CypD (Homo sapiens, UniProt P30405).
T1 construct: PPIF (UniProtKB Entry P30405: residues 45–207); made in house; host or cells: E. coli BL21(DE3)
As to the kind of experiment: Surface plasmon resonance analysis of CypD ligands. The experiment is classed as binding. Conditions: immobilized CypD; read-out: KD CypD (SPR). The method, then: Adapting a previously used protocol, employing a Biacore T200 SPR, a Sensor S NTA (Biacore) chip was pre-loaded with 0.3 M NiCl2 and His6-CypD (50.24 nM, 1 µg mL^−1) within a solution of 10 mM HEPES, 150 mM NaCl, 0.005% Tween-20 and 1 mM TCEP (surface plasmon resonance (SPR) buffer). Protein was covalently immobilized subsequently with injection of 200 mM 1-ethyl-3-(3-dimethylaminopropyl)carbodiimide (EDC) 50 mM N-hydroxysuccinimide (NHS). EDC–NHS-activated chip was quenched by flowing 1 M ethanolamine over the chip. Compounds were dissolved in 1% DMSO/SPR buffer and flowed over the SPR chip. Binding analysis was conducted from raw sensorgram resonance unit (RU) values, where individual replicates represent kinetic fitted RU value during time of compound administration at each dose. RU values were normalized to DMSO treatment and the maximum RU value of 200 µM JOMBt. These values were evaluated using Prism v.9 by fitting one site-specific binding to calculate KD values.
On the technique in general: Surface plasmon resonance follows binding to a sensor surface in real time, without labels.

Another experiment has as its target CypD (Homo sapiens, UniProt P30405). Briefly: Competition anisotropy binding assay with A26-Fl. To be noted: FP competition with 0.5 nM A26-Fl, 24 h. Also noted: PPIF (UniProtKB Entry P30405: residues 45–207); made in house; host or cells: E. coli BL21(DE3). The protocol:
Adapted from previous work[52], cyclophilin in assay buffer (25 mM HEPES pH 8.0, 100 mM NaCl, 0.01% Triton X-100) at a pre-determined concentration from Supplementary Table 6 was incubated with 0.5 nM A26-Fl for 10 min at room temperature in a flat-bottom black untreated 96-well plate (Corning). Competitor macrocycle was then added to each well and incubated for 24 h. Final assay volume was 100 µL with 0.25% DMSO. Fluorescence anisotropy was then measured using a Tecan Spark plate reader using 492 nm/523 nm excitation/emission settings.

One may read the Kd as a measure of binding affinity in units of concentration. As a reminder, the Ki is the equilibrium dissociation constant of an inhibitor or competing ligand from its target.

T1 sequence (P30405 45-207): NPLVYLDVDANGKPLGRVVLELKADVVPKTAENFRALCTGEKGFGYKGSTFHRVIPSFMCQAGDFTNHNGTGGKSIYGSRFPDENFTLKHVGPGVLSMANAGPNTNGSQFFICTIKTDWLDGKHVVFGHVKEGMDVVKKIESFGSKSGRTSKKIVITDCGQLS
Chain of CypD (P30405 45-207): as above

`NCCOCCNC(=O)C1CCNC(=O)C=CC(=O)N2CCCC(C2)C(=O)NC(Cc2ccco2)C(=O)NCc2ccccc2CC(=O)N1` (centres unmarked) [JOMBt]: the Kd at His6-CypD is 19 µM.

In the case of `NC(=O)C1CCNC(=O)C=CC(=O)N2CCCC(Cc3ccccc3)(C2)C(=O)NC(Cc2ccc(-c3ccc(C=O)c(B(O)O)c3)cc2)C(=O)NCc2ccccc2CC(=O)N1` (centres unmarked) [Compound C3A], on CypD, the affinity, expressed as Ki, was 0.52 µM.
